Reference: ChEMBL document CHEMBL4011609, “Discovery of novel BRD4 inhibitors by high-throughput screening, crystallography, and cell-based assays” (Bioorg Med Chem Lett, 2017)

How the values were obtained:
[1] = molecular target: T1, Bromodomain-containing protein 4 (Homo sapiens, UniProt O60885); assay: Inhibition of human BRD4-BD1 (49 to 170 residues) expressed in Escherichia coli BL21(DE3) using N-C:SGRG-K(Ac)-GG-K(Ac)-GLG-K(Ac)-GGA-K(Ac)-RHRKVGG-K(biotin) as substrate preincubated for 15 mins followed by substrate addition measured after 5 mins by AlphaScreen assay
[2] = molecular target: T1, Bromodomain-containing protein 4; assay: Inhibition of human BRD4-BD1 (49 to 170 residues) expressed in Escherichia coli BL21(DE3) using N-C:SGRG-K(Ac)-GG-K(Ac)-GLG-K(Ac)-GGA-K(Ac)-RHRKVGG-K(biotin) as substrate preincubated for 15 mins followed by substrate addition measured after 5 mins by AlphaScreen assay relative to control; parameters: concentration or dose not given beside the values

| SMILES | IC50 [1] | inhibition [2] |
| --- | --- | --- |
| O=C(NCCNc1cc(=O)oc2ccccc12)c1ccco1 |  | 43.6% |
| O=c1oc2ccccc2c2ncn(CCCN3CCOCC3)c12 |  | 40.7% |
| CN(C)CCCNCCCNc1cc(=O)oc2ccccc12 |  | 37.2% |
| CCCNS(=O)(=O)c1ccc2c3c(cccc13)C(=O)N2CC | 2.64 µM |  |
| CCCNS(=O)(=O)c1ccc2c3c(cccc13)C(=O)N2C | 9.57 µM |  |
| O=C(Nc1cccc(S(=O)(=O)N2CCCC2)c1)c1nc[nH]n1 | 42.2 µM |  |
| O=C(NCc1n[nH]c(=O)c2ccccc12)c1cccc(Cl)c1 | 47.3 µM |  |
| CN(CCCNc1cc(=O)oc2ccccc12)C(=O)c1ccco1 | 2.05 µM | 98% |
| O=C(NCCNc1cc(=O)oc2ccccc12)c1cccs1 |  | 72% |
| CCCn1nnc(NC(=O)COc2ccc(Cl)cc2C)n1 | 23.1 µM |  |
| O=c1[nH]n(CC2COC3(CCCCC3)O2)c(=O)c2ccccc12 (configuration not stated) | 13.3 µM |  |
| CN1CCN(CCCNc2c(N)c(=O)oc3ccccc23)CC1 |  | 24.5% |
| O=c1cc(NCCCN2CCOCC2)c2ccccc2o1 |  | 59.9% |
| O=c1oc2ccccc2c(NC2CCN(Cc3ccccc3)CC2)c1[N+](=O)[O-] |  | 58.5% |
| CCOC(=O)c1ncccc1NC(=O)CC(=O)Nc1cccnc1C(=O)OCC | 2.87 µM |  |
| CN(CCCNc1cc(=O)oc2ccccc12)S(=O)(=O)c1ccccc1 |  | 28.6% |
| Cc1[nH]n(-c2nc(O)c(Cc3ccccc3)c(=O)[nH]2)c(=O)c1CCO | 3.09 µM |  |
| O=c1cc(NCCCN2CCN(Cc3ccccc3)CC2)c2ccccc2o1 |  | 52.3% |
| CCN1C(=O)c2cccc3c(S(=O)(=O)N4CCCC4)ccc1c23 | 1.91 µM |  |
| O=c1oc2ccccc2c(NCCCN2CCOCC2)c1[N+](=O)[O-] |  | 42.8% |
| c1coc(-c2nnc(-c3ccc4ccccc4c3)c3nocc23)c1 | 13.3 µM |  |
| COc1cccc2cc(C(=O)N(C)C)c(=O)oc12 |  | 38.5% |
| CCc1nnc(NC(=O)C2(C)COC(c3ccccc3)OC2)s1 (configuration not stated) | 69.2 µM |  |
| O=c1cc(NC2CCN(CCCc3ccccc3)CC2)c2ccc(Cl)cc2o1 |  | 22.1% |
| CC(=O)CC(c1ccccc1)c1c(O)c2ncccc2oc1=O (configuration not stated) | 2.83 µM |  |
| COC(=O)C(O)(c1cc(C)c2cccnc2c1O)C(F)(F)F (configuration not stated) | 2.1 µM |  |
| O=C(Nc1ccc(Cl)cn1)c1c(F)c(F)c(F)c(F)c1F | 32.2 µM |  |
| CC1(C)CON(Cc2ccc(N3C(=O)c4cccnc4C3=O)cc2Cl)C1=O | 12.7 µM |  |
| CN(CCCNc1cc(=O)oc2ccccc12)C(=O)C(C)(C)C | 4.56 µM | 96.2% |
| N#Cc1c(-c2ccc(Cl)cc2)cc(-c2cccs2)nc1SCC(=O)NCC(=O)O | 0.89 µM |  |

More lines, now with the values ahead:

| IC50 [1] | inhibition [2] | SMILES |
| --- | --- | --- |
| 11 µM |  | COc1ccc(/C=C(\NC(=O)c2ccc(C)cc2)C(=O)NCCCn2ccnc2)cc1 |
| 1.04 µM | 97.4% | O=C(CNc1cc(=O)oc2ccccc12)OCC(=O)c1ccc(Br)cc1 |
| 8.18 µM | 97.3% | CN(CCCNc1cc(=O)oc2ccccc12)C(=O)c1cccc(F)c1 |
| 10.9 µM |  | Cc1ccc(-[n+]2c3ccccc3nc3ccc(N4CCOCC4)cc32)cc1 |
| 27.5 µM |  | CC(=O)C(C(C)=O)C(c1ccc(Cl)cc1)c1ccc(Cl)cc1 |
| 39 µM |  | O=C(c1ccccc1)c1ccc(NS(=O)(=O)c2cccc(Br)c2)cc1 |
|  | 12.8% | O=C(NCCNc1cc(=O)oc2ccccc12)c1ccc2ccccc2n1 |
| 21.3 µM |  | Cc1ccn(-c2ccc(NCCNC(=O)c3ccc(Br)o3)nn2)n1 |
|  | 58.5% | O=c1cc(NCCCn2ccnc2)c2ccccc2o1 |
|  | 48.9% | COc1ccc(C(=O)N(C)CCCNc2cc(=O)oc3ccccc23)cc1 |
| 13.8 µM |  | O=C(NCCNc1ccc(-n2cccn2)nn1)c1ccccc1 |
| 11.2 µM |  | O=C(NCCNc1ccc(-n2cccn2)nn1)c1ccccc1Cl |
| 50.9 µM |  | CC(=O)N(C)c1ccc(NC(=O)COc2ccc(Br)cc2Cl)cc1 |
| 9.68 µM |  | CCN1C(=O)c2cccc3c(S(=O)(=O)Nc4ccccc4C)ccc1c23 |
|  | 71.5% | O=C(NCCCNC(=O)c1cccs1)c1nc2ccccc2c(=O)[nH]1 |
| 50.7 µM |  | Cc1ccc(C)c(NC(=O)CC(c2ccccc2)c2ccccc2)c1 |
|  | 56.5% | CN(CCCNC(=O)c1nc2ccccc2c(=O)[nH]1)C(=O)c1cccs1 |
| 1.11 µM |  | O=C(CN1CC(=O)Oc2ccccc21)OCC(=O)c1ccc(Br)cc1 |
|  | 30.2% | O=C(NCCCNc1cc(=O)oc2ccccc12)c1cccnc1 |
| 3.65 µM | 97.1% | CN(CCCNc1cc(=O)oc2ccccc12)C(=O)c1cccc(Cl)c1 |
| 5.36 µM |  | COc1ccc(C2=NN(C(=O)CCCC(=O)O)C(c3cn(-c4ccccc4)nc3-c3ccccc3)C2)cc1 (configuration not stated) |
| 18.7 µM |  | COc1ccccc1NC(=O)CCSc1cccc2cccnc12 |
